Measured values taken from US20230098403A1, “MAGNETIC RESONANCE IMAGING CONTRAST AGENT, PREPARATION METHOD AND USE THEREOF” (GUANGZHOU PINGLAN MEDICAL TECHNOLOGY CO., LTD., priority 2020, published 2023).

Assays:
[1] = Relaxivity measurement (T1 and T2 relaxation, MRI Contrast Agent Analyzer); format: physicochemical; conditions: 0.5 T, 32° C.
Protocol: The method for measuring the relaxivity comprises the following steps: preparing contrast agent solutions in a gradient concentration (0.054, 0.109, 0.224, 0.451, 0.906 mM, in Hepes buffer, pH=7.4), and measuring the contrast agent samples at different concentrations by Niumag PQ001 MRI Contrast Agent Analyzer (0.5±0.08T, main frequency of instrument: 21.3 MHz; at 32° C.) to respectively obtain their T1 and T2 relaxation time, and then performing a linear fitting between the relaxation rate, Ri (Ri=1/Ti, i=1, 2) and the contrast agent concentrations to obtain a slope, i.e., relaxivity (ri, i=1, 2). Relaxivity reflects the ability of magnetic resonance imaging contrast agent to alter the relaxation time of water proton and is an important parameter to evaluate the quality of contrast agent. Relaxivity (ri, i=1, 2) is defined as the alteration in the relaxation rate of water proton (1/Ti, i=1, 2) by unit concentration of MRI Contrast agent (mmol/L).

[2] = comparison value for the commercial agent; cited from earlier work

| SMILES | relaxation efficiency r1 [1] [mmol⁻¹ s⁻¹] | relaxivity r1 [2] [mmol⁻¹ s⁻¹] |
| --- | --- | --- |
| O=C([O-])CN(CP(=O)([O-])O)C1CCCCC1N(CC(=O)[O-])CP(=O)([O-])O.[Fe+3].[Na+] (centres unmarked) [Example 4] | 1.80 |  |
| CNC[C@H](O)[C@@H](O)[C@H](O)[C@H](O)CO.CNC[C@H](O)[C@@H](O)[C@H](O)[C@H](O)CO.O=C([O-])CN(CCN(CC(=O)[O-])CC(=O)O)CCN(CC(=O)[O-])CC(=O)O.[Gd+3] [Magnvist®] |  | 3.4 |
